Where two headings read alike, the source gives them in different places.
What was measured:
KCNQ2/3 channels = target: T1, KCNQ2/3 channels (Homo sapiens, UniProt O43525+O43526); experiment: KCNQ2/3 currents, voltage clamp of CHO cells transiently expressing heterologous KCNQ2/3 channels; format: cell-based
T1 construct: expressed in transfected cells; host or cells: CHO cells, transient expression
Experimental: Retigabine and SF0034 at KCNQ2/3 channels. […] CHO cells transiently expressing heterologous KCNQ2/3 channels were clamped at −85 mV and KCNQ2/3 currents were measured elicited by 1 s depolarization step from −105 to +15 mV in the increment of 10 mV followed by return step to −70 mV. […] Representative current traces of KCNQ2/3 currents at increasing membrane potentials in absence and presence of 100 nM retigabine (A) and 100 nM SF0034 (C). B, D. Representative curves of normalized G-V (conductance-voltage) relationship of KCNQ2/3 currents at control and at increasing concentration of retigabine (B) and SF0034 (D). E. Summary bar graph representing half activation (V1/2) of KCNQ2/3 currents calculated from normalized G-V Boltzmann curves at control and at increasing concentration of retigabine and SF0034. […] Curves were fitted with a hill equation and EC50 values were calculated. Error bars represent mean±SEM. **p<0.01, ***p<0.001.
CHO cells transiently expressing heterologous KCNQ2/3 channels were clamped at −85 mV and KCNQ2/3 currents were measured elicited by 1 s depolarization step from −105 to +15 mV in the increment of 10 mV followed by return step to −70 mV. […] Curves were fitted with a hill equation and EC50 values were calculated. Error bars represent mean±SEM. *p<0.05, **p<0.01.
CHO cells transiently expressing heterologous KCNQ2/3 and homomeric KCNQ4 and KCNQ5 channels were clamped at −85 mV and KCNQ currents were elicited by 1 s depolarization step from −105 to +15 mV in the increment of 10 mV followed by return step to −70 mV. […] Representative current traces of KCNQ2/3 currents at increasing membrane potentials in absence and presence of 100 nM or 1 μM RL648_81. […] Representative curves of normalized G-V relationship of KCNQ2/3 currents at control and at increasing concentration of RL648_81. […] Summary bar graph representing half activation (V1/2) of KCNQ2/3 currents calculated from normalized G-V Boltzmann curves at control and at increasing concentration of RL648_81 A4. […] Curves were fitted with a hill equation and EC50 values were calculated. […] D. Summary bar graphs representing EC50 values of second generation compounds tested at KCNQ2/3 channels in comparison with SF0034.

KCNQ5 channels = target: T2, KCNQ5 channels (Homo sapiens, UniProt Q9NR82); experiment: KCNQ5 currents, voltage clamp of CHO cells transiently expressing homomeric KCNQ5 channels; format: cell-based; settings: 100 nM and 1 μM
T2 construct: expressed in transfected cells; host or cells: CHO cells, transient expression
Experimental: (§1) FIG. 7. […] CHO cells transiently expressing homomeric KCNQ4 or KCNQ5 channels were clamped at −85 mV and KCNQ currents were measured elicited by 1 s depolarization step from −105 to +15 mV in the increment of 10 mV followed by return step to −70 mV. […] B1-2. […] C1-2. […] E1-2. […] F1-2. […] H1-2. […] I1-2.
(§2) FIG. 9. […] CHO cells transiently expressing heterologous KCNQ2/3 and homomeric KCNQ4 and KCNQ5 channels were clamped at −85 mV and KCNQ currents were elicited by 1 s depolarization step from −105 to +15 mV in the increment of 10 mV followed by return step to −70 mV. A1. […] A2. […] A3. […] Curves were fitted with a hill equation and EC50 values were calculated. B1.

KCNQ4 channels = target: T3, KCNQ4 channels (Homo sapiens, UniProt P56696); experiment: KCNQ4 currents, voltage clamp of CHO cells transiently expressing homomeric KCNQ4 channels; format: cell-based; settings: 100 nM and 1 μM
T3 construct: expressed in transfected cells; host or cells: CHO cells, transient expression
Experimental: as §1, §2

[1] = hydrochloride salt; cited from earlier work
[2] = CHO cells, 100 nM-30 μM, Hill fit, mean±SEM, read-out: EC50 of half activation shift (ΔV1/2) of KCNQ2/3 currents

T1 sequence (O43526 whole entry): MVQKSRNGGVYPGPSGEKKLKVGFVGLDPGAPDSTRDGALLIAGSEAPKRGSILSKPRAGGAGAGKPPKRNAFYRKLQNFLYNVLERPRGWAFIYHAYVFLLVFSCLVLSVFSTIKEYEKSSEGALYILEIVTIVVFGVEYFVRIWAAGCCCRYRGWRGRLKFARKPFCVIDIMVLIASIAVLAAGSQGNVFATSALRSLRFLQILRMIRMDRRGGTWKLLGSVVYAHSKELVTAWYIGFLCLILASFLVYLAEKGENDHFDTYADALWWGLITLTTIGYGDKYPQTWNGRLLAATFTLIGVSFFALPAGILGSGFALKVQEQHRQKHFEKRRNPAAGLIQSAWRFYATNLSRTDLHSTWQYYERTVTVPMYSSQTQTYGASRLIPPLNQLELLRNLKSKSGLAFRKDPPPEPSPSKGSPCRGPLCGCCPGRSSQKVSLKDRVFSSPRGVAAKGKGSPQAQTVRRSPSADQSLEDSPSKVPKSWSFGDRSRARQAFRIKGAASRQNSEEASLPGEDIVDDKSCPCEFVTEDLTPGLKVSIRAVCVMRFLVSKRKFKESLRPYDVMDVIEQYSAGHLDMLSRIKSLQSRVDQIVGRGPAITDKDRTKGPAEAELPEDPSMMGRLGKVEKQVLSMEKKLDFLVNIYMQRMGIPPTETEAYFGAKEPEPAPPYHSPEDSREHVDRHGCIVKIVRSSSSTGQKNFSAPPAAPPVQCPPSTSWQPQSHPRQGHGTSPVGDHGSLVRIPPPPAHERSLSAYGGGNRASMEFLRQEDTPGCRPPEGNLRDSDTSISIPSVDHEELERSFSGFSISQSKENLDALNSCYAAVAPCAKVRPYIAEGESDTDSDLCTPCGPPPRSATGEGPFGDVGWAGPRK
T1 sequence (O43525 whole entry): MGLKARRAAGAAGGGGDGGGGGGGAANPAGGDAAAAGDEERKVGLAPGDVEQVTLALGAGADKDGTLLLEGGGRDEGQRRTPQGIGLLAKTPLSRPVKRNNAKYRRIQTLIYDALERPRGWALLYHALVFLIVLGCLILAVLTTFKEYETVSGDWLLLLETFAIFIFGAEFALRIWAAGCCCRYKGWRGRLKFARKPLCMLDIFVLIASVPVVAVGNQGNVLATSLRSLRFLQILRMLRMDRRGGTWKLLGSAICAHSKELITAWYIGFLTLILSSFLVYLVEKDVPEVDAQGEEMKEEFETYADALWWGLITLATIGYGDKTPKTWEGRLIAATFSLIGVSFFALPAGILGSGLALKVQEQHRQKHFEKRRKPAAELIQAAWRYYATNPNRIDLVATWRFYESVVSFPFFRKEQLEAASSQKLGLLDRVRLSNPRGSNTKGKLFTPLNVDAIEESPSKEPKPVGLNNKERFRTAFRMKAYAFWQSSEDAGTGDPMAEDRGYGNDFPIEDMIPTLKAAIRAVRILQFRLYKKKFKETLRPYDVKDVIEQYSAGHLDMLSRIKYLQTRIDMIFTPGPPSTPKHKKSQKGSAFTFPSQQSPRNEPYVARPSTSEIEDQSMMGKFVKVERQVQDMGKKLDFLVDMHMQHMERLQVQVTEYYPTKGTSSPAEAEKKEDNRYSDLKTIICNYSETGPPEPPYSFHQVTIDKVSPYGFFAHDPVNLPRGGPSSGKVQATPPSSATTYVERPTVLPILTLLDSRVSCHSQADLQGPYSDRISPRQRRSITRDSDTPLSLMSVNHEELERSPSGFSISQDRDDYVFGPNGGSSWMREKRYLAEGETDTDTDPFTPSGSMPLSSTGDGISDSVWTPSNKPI

## CCOC(=O)Nc1ccc(NCc2ccc(C(F)(F)F)cc2)cc1N
KCNQ2/3 channels
  EC50: 910 ± 80 nM

## CCOC(=O)Nc1ccc(NCc2cccc(C(F)(F)F)c2)cc1N [NR561_50, N-[2-Amino-4-({[3-(trifluoromethyl)phenyl]methyl}amino)phenyl]ethoxycarboxamide]
KCNQ2/3 channels; [2]
  EC50: 740 ± 70 nM
KCNQ5 channels
  activation of KCNQ5 channel currents: does not activate KCNQ4 and KCNQ5 channel currents significantly
KCNQ4 channels
  activation of KCNQ4 channel currents: does not activate KCNQ4 and KCNQ5 channel currents significantly

## CC(C)OC(=O)Nc1ccc(NCc2ccc(F)cc2)cc1N [NR561_62, N-(2-Amino-4-{[(4-fluorophenyl)methyl]amino}phenyl)(methylethoxy)carboxamide]
KCNQ2/3 channels; CHO cells
  potency in activating KCNQ2/3 channel currents relative to SF0034 (times lower potency): 2-3 times
KCNQ2/3 channels; [2]
  EC50: 1480 ± 180 nM

## CCOC(=O)Nc1ccc(NCc2cccc(C(F)(F)F)c2)c(F)c1N [RL648_73, Ethyl (2-amino-3-fluoro-4-((3-(trifluoromethyl)benzyl)amino)phenyl)carbamate]
KCNQ2/3 channels; CHO cells
  potency in activating KCNQ2/3 channel currents relative to SF0034 (times more potent): 2 times

## CCOC(=O)Nc1ccc(NCc2ccc(C(F)(F)F)cc2)c(F)c1N [RL648_81, Ethyl (2-amino-3-fluoro-4-((4-(trifluoromethyl)benzyl)amino)phenyl)carbamate]
KCNQ2/3 channels; CHO cells
  potency in activating KCNQ2/3 channel currents relative to SF0034 (times more potent): three times more potent than SF0034
KCNQ2/3 channels; [2]
  EC50: 190 ± 20 nM
KCNQ5 channels
  activation of KCNQ5 channel currents: does not potentiate KCNQ4 and KCNQ5 channel currents significantly
KCNQ4 channels
  activation of KCNQ4 channel currents: does not potentiate KCNQ4 and KCNQ5 channel currents significantly

## CCOC(=O)Nc1ccc(NCc2ccc(F)cc2)c(F)c1N [SF0034, reference compound]
KCNQ2/3 channels; 100 nM
  shift of half activation (V1/2) of KCNQ2/3 currents from control: significantly shift the V1/2
KCNQ2/3 channels; CHO cells
  potency in activating KCNQ2/3 channel currents relative to retigabine (times more potent): five-times more potent than retigabine
KCNQ2/3 channels; [2]
  EC50: 600 ± 60 nM

## CCOC(=O)Nc1ccc(NCc2ccc(F)cc2)cc1N [retigabine, reference compound]
KCNQ2/3 channels
  EC50: 3300 ± 800 nM
[1]
  solubility in aqueous solution: only sparingly soluble

## Isopropyl (2-amino-3-fluoro-4-((4-fluorobenzyl)amino)phenyl)carbamate [RL648_86]
KCNQ2/3 channels; CHO cells
  potency in activating KCNQ2/3 channel currents relative to SF0034 (times more potent): 2 times

Source: US10526280B2 (University of Pittsburgh—Of the Commonwealth System of …, priority 2014, dated 2020)
